Experimental data published in patent US20200239398A1, “METHYLENE-CYCLOALKYLACETATE DERIVATIVES AND THEIR USE IN TREATMENT OF NEUROTROPIC CONDITIONS” (Yissum Research Development Company of The Hebrew …, priority 2018, published 2020).
Where two headings read alike, the source gives them in different places.

Assays:
[1] = target: T1, Kv7.1/KCNE Potassium voltage-gated channel (KvLQT1/minK) (Homo sapiens, UniProt P51787); assay: SAFETYscan KvLQT1/minK Ion channel; type: cell-based; conditions: 10 μM HU-MCA-13, read-out: Maximal Response
T1 construct: DiscoverX (SAFETYscan contract panel)

[2] = target: Histamine Receptor H1 (HRH1) (Homo sapiens, UniProt P35367); assay: SAFETYscan HRH1 Calcium Flux; type: cell-based; conditions: 10 μM HU-MCA-13, read-out: Maximal Response
[3] = target: Muscarinic acetylcholine Receptor M3 (CHRM3) (Homo sapiens, UniProt P20309); assay: cell-based; conditions: 10 μM HU-MCA-13, read-out: Maximal Response
[4] = target: T2, Serotonin transporter (SERT) (Homo sapiens, UniProt P31645); assay: cell-based; conditions: Blocker mode; 10 μM HU-MCA-13; read-out: Maximal Response
T2 construct: DiscoverX (SAFETYscan contract panel)

[5] = target: Adrenergic Receptor β1 (ADRB1) (Homo sapiens, UniProt P08588); assay: SAFETYscan ADRB1 cAMP; type: cell-based; conditions: 10 μM HU-MCA-13, read-out: Maximal Response
hERG (Kv11.1) = target: T3, hERG (Kv11.1) (Homo sapiens, UniProt Q12809); assay: in vitro; type: cell-based; conditions: Blocker mode, 10 μM HU-MCA-13, read-out: Maximal Response
T3 construct: DiscoverX (SAFETYscan contract panel)

[6] = target: T4, Rho Associated Coiled-Coil Containing Protein Kinase 1 (serine-threonine kinase) (ROCK1) (Homo sapiens, UniProt Q13464); assay: SAFETYscan ROCK1 kinase Binding; conditions: Inhibitor mode, 10 μM HU-MCA-13, read-out: Maximal Response
T4 construct: DiscoverX (KINOMEscan)

[7] = target: Dopamine Receptor D1 (DRD1) (Homo sapiens, UniProt P21728); assay: SAFETYscan DRD1 cAMP; type: cell-based; conditions: 10 μM HU-MCA-13
[8] = target: Opioid Receptor Kappa 1 (OPRK1) (Homo sapiens, UniProt P41145); assay: SAFETYscan OPRK1 cAMP; type: cell-based; conditions: 10 μM HU-MCA-13, read-out: Maximal Response
[9] = target: Opioid Receptor Delta 1 (OPRD1) (Homo sapiens, UniProt P41143); assay: SAFETYscan OPRD1 cAMP; type: cell-based; conditions: 10 μM HU-MCA-13, read-out: Maximal Response
[10] = target: T5, Monoamine oxidase type A (MAOA) (Homo sapiens, UniProt P21397); assay: SAFETYscan MAOA Enzymatic; type: biochemical; conditions: Inhibitor mode; 10 μM HU-MCA-13; read-out: Maximal Response
T5 construct: DiscoverX (SAFETYscan contract panel)

[11] = target: T6, Insulin Receptor (tyrosine kinase) (INSR) (Homo sapiens, UniProt P06213); assay: SAFETYscan INSR kinase Binding; conditions: Inhibitor mode, 10 μM HU-MCA-13, read-out: Maximal Response
T6 construct: DiscoverX (KINOMEscan)

[12] = target: 5-Hydroxytryptamine (Serotonin) Receptor 1A (HTR1A) (Homo sapiens, UniProt P08908); assay: SAFETYscan HTR1A cAMP; type: cell-based; conditions: 10 μM HU-MCA-13
[13] = target: T7, cGMP-inhibited cyclic nucleotide phosphodiesterase 3A (PDE3A) (Homo sapiens, UniProt Q14432); assay: SAFETYscan PDE3A Enzymatic; type: biochemical; conditions: Inhibitor mode; 10 μM HU-MCA-13; read-out: Maximal Response
T7 construct: DiscoverX (SAFETYscan contract panel)

[14] = target: Adenosine Receptor A2A (ADORA2A) (Homo sapiens, UniProt P29274); assay: SAFETYscan ADORA2A Calcium Flux; type: cell-based; conditions: 10 μM HU-MCA-13, read-out: Maximal Response
[15] = target: 5-Hydroxytryptamine (Serotonin) Receptor 1B (HTR1B) (Homo sapiens, UniProt P28222); assay: SAFETYscan HTR1B cAMP; type: cell-based; conditions: 10 μM HU-MCA-13, read-out: Maximal Response
[16] = target: Histamine Receptor H2 (HRH2) (Homo sapiens, UniProt P25021); assay: SAFETYscan HRH2 cAMP; type: cell-based; conditions: 10 μM HU-MCA-13; for Emax: read-out: Maximal Response
Cyclooxygenase 2 (COX 2) = target: T8, Cyclooxygenase 2 (COX 2) (Homo sapiens, UniProt P35354); assay: SAFETYscan COX 2 Enzymatic; type: biochemical; conditions: Inhibitor mode; 10 μM HU-MCA-13; read-out: Maximal Response
T8 construct: DiscoverX (SAFETYscan contract panel)

[17] = target: Cannabinoid Receptor 2 (CNR2) (Homo sapiens, UniProt P34972); assay: SAFETYscan CNR2 cAMP; type: cell-based; conditions: 10 μM HU-MCA-13; for Emax: read-out: Maximal Response
[18] = target: Voltage-gated L-type calcium channel (CAV1.2) (Homo sapiens, UniProt Q13936); assay: in vitro; parameters: dose or concentration left out as unconfirmed
Cyclooxygenase 1 (COX 1) = target: T9, Cyclooxygenase 1 (COX 1) (Homo sapiens, UniProt P23219); assay: SAFETYscan COX 1 Enzymatic; type: biochemical; conditions: Inhibitor mode; 10 μM HU-MCA-13; read-out: Maximal Response
T9 construct: DiscoverX (SAFETYscan contract panel)

[19] = target: T10, Vascular endothelial growth factor receptor 2 (KDR tyrosine kinase) (VEGFR2) (Homo sapiens, UniProt P35968); assay: SAFETYscan VEGFR2 kinase Binding; conditions: Inhibitor mode, 10 μM HU-MCA-13, read-out: Maximal Response
T10 construct: DiscoverX (KINOMEscan)

[20] = tested on: Gamma-aminobutyric acid Receptor A (GABAA); type: cell-based; conditions: 10 μM HU-MCA-13
[21] = read-out: Maximal Response, Agonist mode
[22] = read-out: Maximal Response, Antagonist mode

Sequence of Histamine Receptor H2 (HRH2) (P25021 whole entry): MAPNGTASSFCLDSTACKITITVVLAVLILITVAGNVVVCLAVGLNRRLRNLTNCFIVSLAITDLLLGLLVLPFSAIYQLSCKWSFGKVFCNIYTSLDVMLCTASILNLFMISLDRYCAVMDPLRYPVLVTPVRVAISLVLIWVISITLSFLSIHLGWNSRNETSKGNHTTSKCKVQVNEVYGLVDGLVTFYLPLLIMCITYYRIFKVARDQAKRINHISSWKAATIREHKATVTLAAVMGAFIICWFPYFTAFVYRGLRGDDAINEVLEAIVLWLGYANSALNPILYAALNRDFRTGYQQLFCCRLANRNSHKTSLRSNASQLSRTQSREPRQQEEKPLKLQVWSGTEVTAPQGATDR
Sequence of Cannabinoid Receptor 2 (CNR2) (P34972 whole entry): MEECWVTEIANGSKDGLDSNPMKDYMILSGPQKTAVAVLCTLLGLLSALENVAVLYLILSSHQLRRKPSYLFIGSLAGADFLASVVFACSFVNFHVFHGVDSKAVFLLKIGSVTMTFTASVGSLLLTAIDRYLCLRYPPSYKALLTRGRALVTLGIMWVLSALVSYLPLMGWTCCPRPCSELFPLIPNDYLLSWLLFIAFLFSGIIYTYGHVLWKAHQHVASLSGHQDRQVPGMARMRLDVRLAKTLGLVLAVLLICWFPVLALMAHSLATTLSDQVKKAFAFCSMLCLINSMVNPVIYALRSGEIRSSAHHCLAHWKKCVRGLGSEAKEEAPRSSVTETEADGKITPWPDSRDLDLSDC
Sequence of Dopamine Receptor D1 (DRD1) (P21728 whole entry): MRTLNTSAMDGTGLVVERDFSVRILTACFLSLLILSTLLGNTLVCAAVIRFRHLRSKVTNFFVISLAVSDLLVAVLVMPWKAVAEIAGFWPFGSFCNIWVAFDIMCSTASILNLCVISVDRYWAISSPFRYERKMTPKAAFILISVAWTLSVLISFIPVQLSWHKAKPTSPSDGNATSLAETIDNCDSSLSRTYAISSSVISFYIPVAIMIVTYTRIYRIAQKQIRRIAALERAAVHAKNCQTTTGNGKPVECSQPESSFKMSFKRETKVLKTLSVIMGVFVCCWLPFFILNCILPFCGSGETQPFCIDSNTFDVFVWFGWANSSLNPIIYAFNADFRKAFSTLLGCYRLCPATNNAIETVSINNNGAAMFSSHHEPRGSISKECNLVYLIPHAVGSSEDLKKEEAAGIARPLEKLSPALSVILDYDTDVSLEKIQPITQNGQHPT
Sequence of 5-Hydroxytryptamine (Serotonin) Receptor 1B (HTR1B) (P28222 whole entry): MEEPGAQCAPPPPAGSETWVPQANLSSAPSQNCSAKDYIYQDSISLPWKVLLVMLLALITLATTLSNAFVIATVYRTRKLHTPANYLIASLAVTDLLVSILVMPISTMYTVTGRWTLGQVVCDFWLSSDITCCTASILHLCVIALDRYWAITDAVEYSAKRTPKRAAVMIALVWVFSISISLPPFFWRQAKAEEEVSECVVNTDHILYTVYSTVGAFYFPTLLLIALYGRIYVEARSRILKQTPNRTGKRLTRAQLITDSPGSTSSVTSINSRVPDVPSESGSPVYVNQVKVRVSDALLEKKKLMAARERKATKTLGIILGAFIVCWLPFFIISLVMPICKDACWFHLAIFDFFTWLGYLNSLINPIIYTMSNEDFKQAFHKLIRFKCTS
Sequence of Adrenergic Receptor β1 (ADRB1) (P08588 whole entry): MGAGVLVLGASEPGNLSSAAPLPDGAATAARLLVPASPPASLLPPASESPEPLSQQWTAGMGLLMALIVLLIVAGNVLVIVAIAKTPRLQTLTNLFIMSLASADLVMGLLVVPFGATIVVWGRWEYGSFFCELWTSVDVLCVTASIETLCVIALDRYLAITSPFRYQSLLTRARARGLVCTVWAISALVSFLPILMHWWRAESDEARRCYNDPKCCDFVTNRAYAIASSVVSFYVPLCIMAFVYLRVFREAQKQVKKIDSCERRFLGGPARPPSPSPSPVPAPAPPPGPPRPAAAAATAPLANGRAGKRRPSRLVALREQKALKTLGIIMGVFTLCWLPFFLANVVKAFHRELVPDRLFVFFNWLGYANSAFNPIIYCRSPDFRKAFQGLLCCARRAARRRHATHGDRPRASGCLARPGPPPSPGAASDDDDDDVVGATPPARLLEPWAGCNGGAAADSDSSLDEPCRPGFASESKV
Sequence of Adenosine Receptor A2A (ADORA2A) (P29274 whole entry): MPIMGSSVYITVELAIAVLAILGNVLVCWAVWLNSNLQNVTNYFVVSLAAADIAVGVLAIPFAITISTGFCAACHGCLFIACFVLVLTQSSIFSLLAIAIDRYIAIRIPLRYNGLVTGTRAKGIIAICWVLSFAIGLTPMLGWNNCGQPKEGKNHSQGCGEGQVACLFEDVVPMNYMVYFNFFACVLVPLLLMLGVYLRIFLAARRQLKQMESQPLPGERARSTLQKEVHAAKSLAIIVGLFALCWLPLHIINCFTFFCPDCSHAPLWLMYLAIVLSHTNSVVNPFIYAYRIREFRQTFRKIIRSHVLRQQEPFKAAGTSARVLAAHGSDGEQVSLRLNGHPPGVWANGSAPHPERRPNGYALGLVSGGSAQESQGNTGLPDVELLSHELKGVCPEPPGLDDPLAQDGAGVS
Sequence of Muscarinic acetylcholine Receptor M3 (CHRM3) (P20309 whole entry): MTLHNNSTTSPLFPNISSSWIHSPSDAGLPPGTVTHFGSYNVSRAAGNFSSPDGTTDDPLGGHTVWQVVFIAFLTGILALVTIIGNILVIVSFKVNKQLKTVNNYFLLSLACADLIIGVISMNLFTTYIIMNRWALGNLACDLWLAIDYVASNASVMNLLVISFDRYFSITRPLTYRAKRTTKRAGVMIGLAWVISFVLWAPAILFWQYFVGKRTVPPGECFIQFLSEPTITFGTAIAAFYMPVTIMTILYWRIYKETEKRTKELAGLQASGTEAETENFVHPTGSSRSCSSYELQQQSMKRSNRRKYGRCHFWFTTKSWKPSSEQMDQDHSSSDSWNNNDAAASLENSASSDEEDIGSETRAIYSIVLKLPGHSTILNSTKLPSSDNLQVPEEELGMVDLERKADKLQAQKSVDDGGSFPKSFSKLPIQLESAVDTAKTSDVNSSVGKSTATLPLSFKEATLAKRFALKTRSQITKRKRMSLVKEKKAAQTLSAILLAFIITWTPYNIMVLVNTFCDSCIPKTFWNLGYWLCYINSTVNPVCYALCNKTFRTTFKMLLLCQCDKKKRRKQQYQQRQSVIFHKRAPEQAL
Sequence of Histamine Receptor H1 (HRH1) (P35367 whole entry): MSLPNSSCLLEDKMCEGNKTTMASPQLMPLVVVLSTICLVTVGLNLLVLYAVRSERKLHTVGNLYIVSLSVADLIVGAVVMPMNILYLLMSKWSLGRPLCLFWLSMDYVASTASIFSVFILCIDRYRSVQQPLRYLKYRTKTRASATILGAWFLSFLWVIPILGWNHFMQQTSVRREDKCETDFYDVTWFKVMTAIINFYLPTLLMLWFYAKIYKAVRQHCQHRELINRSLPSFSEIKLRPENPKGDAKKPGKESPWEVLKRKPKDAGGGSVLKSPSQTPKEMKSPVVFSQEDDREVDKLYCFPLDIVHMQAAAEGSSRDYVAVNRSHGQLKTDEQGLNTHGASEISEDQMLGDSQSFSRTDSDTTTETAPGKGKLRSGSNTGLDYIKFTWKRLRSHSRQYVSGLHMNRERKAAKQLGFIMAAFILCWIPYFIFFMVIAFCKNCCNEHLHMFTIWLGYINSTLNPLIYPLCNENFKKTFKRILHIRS
Sequence of Opioid Receptor Delta 1 (OPRD1) (P41143 whole entry): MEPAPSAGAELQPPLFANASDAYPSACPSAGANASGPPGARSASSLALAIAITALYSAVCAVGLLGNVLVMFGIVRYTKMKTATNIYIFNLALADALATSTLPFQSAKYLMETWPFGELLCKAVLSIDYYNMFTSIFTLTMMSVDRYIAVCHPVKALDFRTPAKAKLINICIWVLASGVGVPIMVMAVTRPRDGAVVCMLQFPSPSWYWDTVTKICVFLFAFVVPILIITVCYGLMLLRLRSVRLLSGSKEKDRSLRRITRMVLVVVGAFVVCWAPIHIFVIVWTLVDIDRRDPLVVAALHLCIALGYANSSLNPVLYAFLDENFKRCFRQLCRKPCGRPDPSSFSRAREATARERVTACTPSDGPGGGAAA
Sequence of 5-Hydroxytryptamine (Serotonin) Receptor 1A (HTR1A) (P08908 whole entry): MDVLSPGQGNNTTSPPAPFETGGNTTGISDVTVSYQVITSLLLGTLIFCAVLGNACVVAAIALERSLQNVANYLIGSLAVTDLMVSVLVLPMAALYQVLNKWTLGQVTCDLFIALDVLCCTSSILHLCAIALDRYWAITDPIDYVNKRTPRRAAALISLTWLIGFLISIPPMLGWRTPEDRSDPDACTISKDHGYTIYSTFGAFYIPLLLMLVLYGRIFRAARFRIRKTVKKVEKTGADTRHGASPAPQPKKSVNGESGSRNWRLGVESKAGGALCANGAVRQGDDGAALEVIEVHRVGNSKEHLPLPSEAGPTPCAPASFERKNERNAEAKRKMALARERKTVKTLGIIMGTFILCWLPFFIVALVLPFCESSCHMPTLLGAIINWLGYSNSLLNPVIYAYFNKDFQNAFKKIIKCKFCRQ
Sequence of Opioid Receptor Kappa 1 (OPRK1) (P41145 whole entry): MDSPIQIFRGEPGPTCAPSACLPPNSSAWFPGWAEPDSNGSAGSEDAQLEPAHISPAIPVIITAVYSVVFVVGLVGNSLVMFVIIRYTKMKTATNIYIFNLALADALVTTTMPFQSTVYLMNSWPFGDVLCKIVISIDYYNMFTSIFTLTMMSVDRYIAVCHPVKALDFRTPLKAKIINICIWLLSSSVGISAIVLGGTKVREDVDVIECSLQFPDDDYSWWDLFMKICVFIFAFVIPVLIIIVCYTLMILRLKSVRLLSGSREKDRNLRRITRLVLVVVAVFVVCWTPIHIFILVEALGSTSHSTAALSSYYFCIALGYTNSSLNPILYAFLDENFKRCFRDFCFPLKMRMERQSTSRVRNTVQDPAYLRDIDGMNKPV

C=CCC1CCC[C@@H](CCC(=O)O)C1=C (some centres unmarked) [Compound 13]
Emax ([1]; Blocker mode): 0.55% | Emax ([1]; Opener mode): 0% | Emax ([2]; Agonist mode): 0% | Emax ([2]; Antagonist mode): 1.05% | Emax ([3]; Agonist mode): 0.13% | Emax ([3]; Antagonist mode): 8.81% | Emax [4]: 15.4% | Emax ([5]; Agonist mode): 1.92% | Emax ([5]; Antagonist mode): 9.29% | Emax at 10 μM (hERG (Kv11.1)): 0% | Emax [6]: 21.6% | Emax [7, 21]: 0% | Emax [7, 22]: 14.3% | Emax ([8]; Agonist mode): 7.89% | Emax ([8]; Antagonist mode): 0% | Emax ([9]; Agonist mode): 6.34% | Emax ([9]; Antagonist mode): 0% | Emax [10]: 1.86% | Emax [11]: 3.22% | Emax [12, 21]: 7.66% | Emax [12, 22]: 0% | Emax [13]: 3.21% | Emax ([14]; Agonist mode): 0% | Emax ([14]; Antagonist mode): 4.09% | Emax ([15]; Agonist mode): 10.5% | Emax ([15]; Antagonist mode): 0% | Emax ([16]; Agonist mode): 1.78% | Maximal Response ([16]; Antagonist mode): 26.94% | Emax ([16]; Antagonist mode): 26.9% | Emax (Cyclooxygenase 2 (COX 2)): 7.99% | Maximal Response ([17]; Agonist mode): 49.59% | Emax ([17]; Agonist mode): 49.6% | Emax ([17]; Antagonist mode): 4.11% | Emax [18]: 3.82% | Emax (Cyclooxygenase 1 (COX 1)): 25% | Emax [19]: 21.7% | Maximal Response ([20]; Blocker mode): 7.74% | Maximal Response ([20]; Opener mode): 3.68%
